This is an account of results in PMC13211308, “Chemical genetics reveals Leishmania KKT2 and CRK9 kinase activity is required for cell cycle progression” (PLOS Pathogens, 2026).

The target of this assay is T1, rCLK1 (recombinant CLK1, KKT10) (Leishmania mexicana, UniProt E9AMP2).
T1 construct: gene LMXM_09_0400
T1 sequence (E9AMP2 1-422): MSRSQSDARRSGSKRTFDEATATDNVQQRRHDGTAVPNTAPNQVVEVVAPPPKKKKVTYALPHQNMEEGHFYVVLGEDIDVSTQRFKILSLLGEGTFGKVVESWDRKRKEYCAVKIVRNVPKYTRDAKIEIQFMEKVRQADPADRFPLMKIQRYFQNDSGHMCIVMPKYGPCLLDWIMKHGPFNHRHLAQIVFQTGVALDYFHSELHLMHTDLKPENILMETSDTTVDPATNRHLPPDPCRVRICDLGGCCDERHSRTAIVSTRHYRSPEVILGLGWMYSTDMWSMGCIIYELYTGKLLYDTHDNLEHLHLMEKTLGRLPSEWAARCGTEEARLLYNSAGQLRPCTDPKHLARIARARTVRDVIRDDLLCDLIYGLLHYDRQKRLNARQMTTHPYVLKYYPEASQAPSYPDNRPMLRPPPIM
The conditions noted are these: 1 mM ATP, 5 mM MgCl2, 1 mM MnCl2, pH 7.5, 2 h, 37 °C.

As for `Nc1ncnc2c1ncn2[C@@H]1O[C@H](COP(=O)(O)OP(=O)(O)OP(=O)(O)O)[C@@H](O)[C@H]1O` [ATP], the “autophosphorylation by intact mass spectrometry” value is listed as “Following incubation with ATP, rCLK1 exhibited three distinct phosphorylation states”.
